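Five compound concentrations were applied to cells in 96-well plates for 48 hours; endpoints were derived by simple linear interpolation of the resulting dose-response curve. GI50 marks 50% less growth. The concentration for full growth arrest is given as TGI.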
How the values were obtained:
Assay in all cases: inhibition of tumour cell growth, NCI panel, 48 h
786-0 renal = test system: 786-0 renal
A498 renal = test system: A498 renal
A549 NSCLC = test system: A549 NSCLC
ACHN renal = test system: ACHN renal
BT-549 breast = test system: BT-549 breast
CAKI-1 renal = test system: CAKI-1 renal
CCRF-CEM leukemia = test system: CCRF-CEM leukemia
COLO 205 colon = test system: COLO 205 colon
DU-145 prostate = test system: DU-145 prostate
EKVX NSCLC = test system: EKVX NSCLC
HCC-2998 colon = test system: HCC-2998 colon
HCT-116 colon = test system: HCT-116 colon
HCT-15 colon = test system: HCT-15 colon
HL-60(TB) leukemia = test system: HL-60(TB) leukemia
HOP-62 NSCLC = test system: HOP-62 NSCLC
HOP-92 NSCLC = test system: HOP-92 NSCLC
HS 578T breast = test system: HS 578T breast
IGROV1 ovarian = test system: IGROV1 ovarian
K-562 leukemia = test system: K-562 leukemia
KM12 colon = test system: KM12 colon
LOX IMVI melanoma = test system: LOX IMVI melanoma
M14 melanoma = test system: M14 melanoma
MALME-3M melanoma = test system: MALME-3M melanoma
MCF7 breast = test system: MCF7 breast
MDA-MB-231 breast = test system: MDA-MB-231 breast
MDA-MB-435 = test system: MDA-MB-435
MOLT-4 leukemia = test system: MOLT-4 leukemia
NCI-H226 lung = test system: NCI-H226 lung
NCI-H23 lung = test system: NCI-H23 lung
NCI-H460 lung = test system: NCI-H460 lung
NCI-H522 lung = test system: NCI-H522 lung
NCI/ADR-RES ovarian = test system: NCI/ADR-RES ovarian
OVCAR-3 ovarian = test system: OVCAR-3 ovarian
OVCAR-4 ovarian = test system: OVCAR-4 ovarian
OVCAR-5 ovarian = test system: OVCAR-5 ovarian
OVCAR-8 ovarian = test system: OVCAR-8 ovarian
PC-3 prostate = test system: PC-3 prostate
RPMI-8226 leukemia = test system: RPMI-8226 leukemia
RXF 393 renal = test system: RXF 393 renal
SF-268 CNS = test system: SF-268 CNS
SF-295 CNS = test system: SF-295 CNS
SF-539 CNS = test system: SF-539 CNS
SK-MEL-2 melanoma = test system: SK-MEL-2 melanoma
SK-MEL-28 melanoma = test system: SK-MEL-28 melanoma
SK-MEL-5 melanoma = test system: SK-MEL-5 melanoma
SK-OV-3 ovarian = test system: SK-OV-3 ovarian
SN12C renal = test system: SN12C renal
SNB-19 CNS = test system: SNB-19 CNS
SNB-75 CNS = test system: SNB-75 CNS
SR leukemia = test system: SR leukemia
SW-620 colon = test system: SW-620 colon
T-47D breast = test system: T-47D breast
TK-10 renal = test system: TK-10 renal
U251 CNS = test system: U251 CNS
UACC-257 melanoma = test system: UACC-257 melanoma
UACC-62 melanoma = test system: UACC-62 melanoma
UO-31 renal = test system: UO-31 renal

C[C@H]1CCC/C=C/[C@@H]2C[C@H](O)C[C@H]2[C@H](O)[C@@H](S(=O)C[C@@H](N)C(=O)O)CC(=O)O1 (stereo partly drawn)
GI50 (786-0 renal): < 18.1 nM | GI50 (A498 renal): 30.9 nM | TGI (A498 renal): 149 nM | TGI (A549 NSCLC): > 100000 nM | GI50 (ACHN renal): 83.3 nM | TGI (ACHN renal): 669 nM | GI50 (BT-549 breast): 86.2 nM | TGI (BT-549 breast): > 100000 nM | GI50 (CAKI-1 renal): 210 nM | GI50 (CCRF-CEM leukemia): 50.8 nM | TGI (CCRF-CEM leukemia): 50200 nM | GI50 (COLO 205 colon): 14.4 nM | TGI (COLO 205 colon): 29.3 nM | GI50 (DU-145 prostate): 434 nM | TGI (DU-145 prostate): > 100000 nM | GI50 (EKVX NSCLC): 84.2 nM | TGI (EKVX NSCLC): > 52300 nM | GI50 (HCC-2998 colon): 30.3 nM | TGI (HCC-2998 colon): 256 nM | GI50 (HCT-116 colon): 32.5 nM | TGI (HCT-116 colon): 1690 nM | GI50 (HCT-15 colon): 137 nM | TGI (HCT-15 colon): 2260 nM | GI50 (HL-60(TB) leukemia): 142 nM | GI50 (HOP-62 NSCLC): 241 nM | TGI (HOP-62 NSCLC): > 100000 nM | GI50 (HOP-92 NSCLC): 42.8 nM | TGI (HOP-92 NSCLC): 1650 nM | GI50 (HS 578T breast): 15.2 nM | TGI (HS 578T breast): > 100000 nM | GI50 (IGROV1 ovarian): 238 nM | TGI (IGROV1 ovarian): 19100 nM | GI50 (K-562 leukemia): 884 nM | TGI (K-562 leukemia): > 100000 nM | GI50 (KM12 colon): < 14 nM | TGI (KM12 colon): 60.5 nM | GI50 (LOX IMVI melanoma): 20.3 nM | TGI (LOX IMVI melanoma): 63.6 nM | GI50 (M14 melanoma): 42.9 nM | TGI (M14 melanoma): > 100000 nM | TGI (MALME-3M melanoma): 25.7 nM | GI50 (MCF7 breast): 30.3 nM | GI50 (MDA-MB-231 breast): 25.1 nM | TGI (MDA-MB-231 breast): 52.8 nM | GI50 (MDA-MB-435): 48 nM | TGI (MDA-MB-435): > 100000 nM | GI50 (MOLT-4 leukemia): 46.4 nM | GI50 (NCI-H226 lung): 19.3 nM | GI50 (NCI-H23 lung): 86.2 nM | TGI (NCI-H23 lung): 8130 nM | GI50 (NCI-H460 lung): 245 nM | TGI (NCI-H460 lung): > 100000 nM | GI50 (NCI-H522 lung): 175 nM | TGI (NCI-H522 lung): 870 nM | GI50 (NCI/ADR-RES ovarian): < 16.5 nM | TGI (NCI/ADR-RES ovarian): 384 nM | GI50 (OVCAR-3 ovarian): 42.5 nM | GI50 (OVCAR-4 ovarian): 44.5 nM | TGI (OVCAR-4 ovarian): > 75000 nM | GI50 (OVCAR-5 ovarian): > 100000 nM | TGI (OVCAR-5 ovarian): > 100000 nM | GI50 (OVCAR-8 ovarian): 32.3 nM | TGI (OVCAR-8 ovarian): 2840 nM | TGI (PC-3 prostate): > 26200 nM | GI50 (RPMI-8226 leukemia): 395 nM | TGI (RPMI-8226 leukemia): > 95300 nM | GI50 (RXF 393 renal): 20200 nM | TGI (RXF 393 renal): 86700 nM | GI50 (SF-268 CNS): 20.7 nM | TGI (SF-268 CNS): > 19900 nM | GI50 (SF-295 CNS): 109 nM | TGI (SF-295 CNS): > 100000 nM | GI50 (SF-539 CNS): 35.8 nM | TGI (SF-539 CNS): > 100000 nM | GI50 (SK-MEL-2 melanoma): 1290 nM | GI50 (SK-MEL-28 melanoma): 29.1 nM | TGI (SK-MEL-28 melanoma): > 100000 nM | GI50 (SK-MEL-5 melanoma): 20.9 nM | TGI (SK-MEL-5 melanoma): 107 nM | GI50 (SK-OV-3 ovarian): 117 nM | TGI (SK-OV-3 ovarian): > 82800 nM | GI50 (SN12C renal): 156 nM | TGI (SN12C renal): 1830 nM | TGI (SNB-19 CNS): > 100000 nM | TGI (SNB-75 CNS): 19.4 nM | GI50 (SR leukemia): 82 nM | GI50 (SW-620 colon): 53.3 nM | GI50 (T-47D breast): 244 nM | TGI (T-47D breast): 992 nM | GI50 (TK-10 renal): 199 nM | GI50 (U251 CNS): 70.9 nM | TGI (U251 CNS): > 100000 nM | GI50 (UACC-257 melanoma): < 18.2 nM | TGI (UACC-257 melanoma): > 100000 nM | GI50 (UACC-62 melanoma): 29.7 nM | TGI (UACC-62 melanoma): > 100000 nM | GI50 (UO-31 renal): 37 nM | TGI (UO-31 renal): 1620 nM
